Assay results taken from patent US20200131669A1, “CYCLIC PEPTIDE COMPOUND HAVING HIGH MEMBRANE PERMEABILITY, AND LIBRARY CONTAINING SAME” (Chugai Seiyaku Kabushiki Kaisha, priority 2017, published 2020).
Starred links: 1 amine or outer side, 2 acyl side, 3 side chain; linkers in the order of their positions; H or OH if unused. Positions of bridges follow the written chain, without caps; N, C: chain ends. Non-standard residues stand in square brackets, D forms with d. Residues, ends and D or L forms follow the SMILES beside them. *: point of attachment. hNle(7,7-F2) = N[C@@H](CCCCC(F)F)C(=O)O; NMehPhe = CN[C@@H](CCc1ccccc1)C(=O)O; dNMehPhe = CN[C@H](CCc1ccccc1)C(=O)O; NMeF = CN[C@@H](Cc1ccccc1)C(=O)O; NMeGABA = CN(CCCC(=O)[*:2])[*:1]; hPhe = N[C@@H](CCc1ccccc1)C(=O)O; NMeL = CN[C@@H](CC(C)C)C(=O)O; NMeV = CN[C@H](C(=O)O)C(C)C; NMeAbu = CC[C@H](NC)C(=O)O; NMeA = CN[C@@H](C)C(=O)O; Piperidide = C1CCN(*)CC1; Abu = CC[C@H](N)C(=O)O; Sar = CNCC(=O)O; tBu = CC(C)(C)*; Propyl = CCC*

assay: Caco-2 membrane permeability, improved method as used in the following Examples (96-well, 20 to 24 h preincubation); format: in vitro ADME; conditions: human, Caco-2, Caco-2
In short: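 Papp (cm/sec) was derived from LC/MS of basal samples collected 180 min after apical dosing in FaSSIF/HBSS pH 6.0 with 1% DMSO, against a basal HBSS pH 7.4 receiver containing 4% BSA. Three-week Caco-2 cultures were first preincubated with compound in DMEM+FaSSIF at 37 °C for 20–24 h.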

Structure (SMILES)	Papp A→B at 180 min
CC[C@H](C)[C@@H]1NC(=O)[C@H](CC(C)C)N(C)C(=O)CCCN(C)C(=O)C[C@@H](C(=O)N2CCCCC2)NC(=O)[C@H](CC(C)C)N(C)C(=O)[C@H](C)N(C)C(=O)[C@H]([C@@H](C)O)NC(=O)[C@H](CC(C)C)N(C)C(=O)[C@H](CCc2ccccc2)NC(=O)[C@H](CC(C)C)N(C)C(=O)[C@H](Cc2ccccc2)N(C)C1=O [pd316] ([NMeGABA][NMeL]I[NMeF][NMeL][hPhe][NMeL]T[NMeA][NMeL]D-Piperidide; lactam N-11)	1.4 ×10⁻⁶ cm/s
CC(C)C[C@H]1C(=O)N[C@H](C(=O)N2CCCCC2)CC(=O)N(C)CCCC(=O)N(C)[C@@H](CC(C)C)C(=O)N[C@@H](CCc2ccccc2)C(=O)N(C)[C@@H](CC(C)C)C(=O)N(C)[C@@H](Cc2ccccc2)C(=O)N[C@@H](COC(C)(C)C)C(=O)N(C)[C@@H](CC(C)C)C(=O)N[C@@H]([C@@H](C)O)C(=O)N(C)CC(=O)N1C [pd317] ([NMeGABA][NMeL][hPhe][NMeL][NMeF]S(tBu)[NMeL]T[Sar][NMeL]D-Piperidide; lactam N-11)	1.8 ×10⁻⁶ cm/s
CC(C)C[C@H]1C(=O)N[C@H](C(=O)N2CCCCC2)CC(=O)N(C)[C@@H](C)C(=O)N[C@@H](C(C)C)C(=O)N(C)[C@@H](CC(C)C)C(=O)N(C)[C@@H](Cc2ccccc2)C(=O)N[C@@H](C)C(=O)N(C)[C@@H](C)C(=O)N(C)[C@@H](CC(C)C)C(=O)N[C@@H](CCc2ccccc2)C(=O)N(C)CC(=O)N1C [pd318] ([NMeA]V[NMeL][NMeF]A[NMeA][NMeL][hPhe][Sar][NMeL]D-Piperidide; lactam N-11)	2.5 ×10⁻⁶ cm/s
CC[C@H]1C(=O)N[C@@H]([C@@H](C)O)C(=O)N(C)CC(=O)N(C)[C@@H](CC(C)C)C(=O)N[C@@H](CC(C)C)C(=O)N(C)[C@@H](Cc2ccccc2)C(=O)N(C)[C@@H](CC(C)C)C(=O)N[C@H](C(=O)N2CCCCC2)CC(=O)N[C@H](C(C)C)C(=O)N(C)[C@@H](CCc2ccccc2)C(=O)N[C@@H](CC(C)C)C(=O)N1C [pd320] ([dV][NMehPhe]L[NMeAbu]T[Sar][NMeL]L[NMeF][NMeL]D-Piperidide; lactam N-11)	1.7 ×10⁻⁶ cm/s
CC(C)C[C@@H]1NC(=O)[C@H](CC(C)C)N(C)C(=O)CN(C)C(=O)[C@H]([C@@H](C)O)NC(=O)[C@H](CC(C)C)N(C)C(=O)[C@H](C(C)C)NC(=O)[C@H](Cc2ccccc2)N(C)C(=O)[C@@H](C)NC(=O)C[C@@H](C(=O)N2CCCCC2)NC(=O)[C@H](CC(C)C)N(C)C(=O)[C@H](CCc2ccccc2)N(C)C1=O [pd321] ([dA][NMeF]V[NMeL]T[Sar][NMeL]L[NMehPhe][NMeL]D-Piperidide; lactam N-11)	1.3 ×10⁻⁶ cm/s
CC[C@@H]1NC(=O)[C@@H](CCc2ccccc2)N(C)C(=O)[C@H](CC(C)C)N(C)C(=O)[C@H](CC(C)C)NC(=O)[C@H](C)N(C)C(=O)C[C@@H](C(=O)N2CCCCC2)NC(=O)[C@H](CC(C)C)N(C)C(=O)CN(C)C(=O)[C@H]([C@@H](C)O)NC(=O)[C@H](CC(C)C)N(C)C(=O)[C@H](Cc2ccccc2)N(C)C1=O [pd322] ([NMeA]L[NMeL][dNMehPhe][Abu][NMeF][NMeL]T[Sar][NMeL]D-Piperidide; lactam N-11)	3.1 ×10⁻⁶ cm/s
CC(C)C[C@@H]1NC(=O)[C@H](C)N(C)C(=O)C[C@@H](C(=O)N2CCCCC2)NC(=O)[C@H](CC(C)C)N(C)C(=O)CN(C)C(=O)[C@H]([C@@H](C)O)NC(=O)[C@H](CC(C)C)N(C)C(=O)[C@H](CCc2ccccc2)N(C)C(=O)[C@H](CC(C)C)NC(=O)[C@H](Cc2ccccc2)N(C)C(=O)[C@H](CC(C)C)N(C)C1=O [pd323] ([NMeA]L[NMeL][NMeF]L[NMehPhe][NMeL]T[Sar][NMeL]D-Piperidide; lactam N-11)	2.3 ×10⁻⁶ cm/s
CC[C@H](C)[C@@H]1NC(=O)[C@H](Cc2ccccc2)N(C)C(=O)CN(C)C(=O)C[C@@H](C(=O)N2CCCCC2)NC(=O)[C@H](CC(C)C)N(C)C(=O)[C@H](COC(C)(C)C)NC(=O)[C@H](CC(C)C)N(C)C(=O)[C@H](CCc2ccccc2)N(C)C(=O)CN(C)C(=O)[C@H]([C@@H](C)O)NC(=O)[C@H](CC(C)C)N(C)C1=O [pd324] ([Sar][NMeF]I[NMeL]T[Sar][NMehPhe][NMeL]S(tBu)[NMeL]D-Piperidide; lactam N-11)	3.3 ×10⁻⁶ cm/s
CCCOC[C@@H]1NC(=O)[C@H](CC(C)C)N(C)C(=O)CN(C)C(=O)[C@H]([C@@H](C)O)NC(=O)[C@H](CC(C)C)N(C)C(=O)[C@H](CC(C)C)NC(=O)[C@H](Cc2ccccc2)N(C)C(=O)[C@@H](C(C)C)NC(=O)C[C@@H](C(=O)N2CCCCC2)NC(=O)[C@H](CC(C)C)N(C)C(=O)[C@H](Cc2ccccc2)N(C)C1=O [pd325] ([dV][NMeF]L[NMeL]T[Sar][NMeL]S(Propyl)[NMeF][NMeL]D-Piperidide; lactam N-11)	2.2 ×10⁻⁶ cm/s
CCCOC[C@@H]1NC(=O)[C@H](CC(C)C)N(C)C(=O)[C@H](C(C)C)NC(=O)[C@H](Cc2ccccc2)N(C)C(=O)[C@@H](C(C)C)NC(=O)C[C@@H](C(=O)N2CCCCC2)NC(=O)[C@H](C)N(C)C(=O)[C@H](Cc2ccccc2)N(C)C(=O)[C@H](COC(C)(C)C)NC(=O)[C@H](CC(C)C)N(C)C(=O)CN(C)C1=O [pd326] ([dV][NMeF]V[NMeL]S(Propyl)[Sar][NMeL]S(tBu)[NMeF][NMeA]D-Piperidide; lactam N-11)	3.3 ×10⁻⁶ cm/s
CCCOC[C@@H]1NC(=O)[C@H](Cc2ccccc2)N(C)C(=O)[C@@H](C(C)C)NC(=O)C[C@@H](C(=O)N2CCCCC2)NC(=O)[C@H](CC(C)C)N(C)C(=O)[C@H](Cc2ccccc2)N(C)C(=O)[C@H](COC(C)(C)C)NC(=O)[C@H](CC(C)C)N(C)C(=O)CN(C)C(=O)[C@H]([C@@H](C)O)NC(=O)[C@H](CC(C)C)N(C)C1=O [pd327] ([dV][NMeF]S(Propyl)[NMeL]T[Sar][NMeL]S(tBu)[NMeF][NMeL]D-Piperidide; lactam N-11)	3.1 ×10⁻⁶ cm/s
CCCOC[C@@H]1NC(=O)[C@H](Cc2ccccc2)N(C)C(=O)[C@H](Cc2ccccc2)N(C)C(=O)[C@H](C(C)C)NC(=O)[C@H](CC(C)C)N(C)C(=O)CCCN(C)C(=O)C[C@@H](C(=O)N2CCCCC2)NC(=O)[C@H](CC(C)C)N(C)C(=O)[C@H](CC(C)C)N(C)C(=O)[C@H]([C@@H](C)O)NC(=O)[C@H](CC(C)C)N(C)C1=O [pd328] ([NMeGABA][NMeL]V[NMeF][NMeF]S(Propyl)[NMeL]T[NMeL][NMeL]D-Piperidide; lactam N-11)	2.3 ×10⁻⁶ cm/s
CCCOC[C@@H]1NC(=O)[C@H](Cc2ccccc2)N(C)C(=O)[C@H](CC(C)C)N(C)C(=O)[C@H](CC(C)C)NC(=O)[C@H](C)N(C)C(=O)C[C@@H](C(=O)N2CCCCC2)NC(=O)[C@H](CC(C)C)N(C)C(=O)CN(C)C(=O)[C@H]([C@@H](C)O)NC(=O)[C@H](CC(C)C)N(C)C(=O)[C@H](Cc2ccccc2)N(C)C1=O [pd329] ([NMeA]L[NMeL][NMeF]S(Propyl)[NMeF][NMeL]T[Sar][NMeL]D-Piperidide; lactam N-11)	4.2 ×10⁻⁶ cm/s
CCCOC[C@@H]1NC(=O)[C@H](CC(C)C)N(C)C(=O)[C@H](Cc2ccccc2)N(C)C(=O)CN(C)C(=O)[C@H]([C@@H](C)O)NC(=O)[C@H](CC(C)C)N(C)C(=O)[C@H]([C@@H](C)CC)NC(=O)[C@H](Cc2ccccc2)N(C)C(=O)CN(C)C(=O)C[C@@H](C(=O)N2CCCCC2)NC(=O)[C@H](CC(C)C)N(C)C1=O [pd330] ([Sar][NMeF]I[NMeL]T[Sar][NMeF][NMeL]S(Propyl)[NMeL]D-Piperidide; lactam N-11)	1.8 ×10⁻⁶ cm/s
CC(C)C[C@H]1C(=O)N[C@@H](COC(C)(C)C)C(=O)N(C)[C@@H](Cc2ccccc2)C(=O)N(C)[C@@H](C(C)C)C(=O)N[C@H](C(=O)N2CCCCC2)CC(=O)N[C@H](C(C)C)C(=O)N(C)[C@@H](Cc2ccccc2)C(=O)N[C@@H](CCCCC(F)F)C(=O)N(C)[C@@H](CC(C)C)C(=O)N[C@@H]([C@@H](C)O)C(=O)N(C)CC(=O)N1C [pd331] ([dV][NMeF][hNle(7,7-F2)][NMeL]T[Sar][NMeL]S(tBu)[NMeF][NMeV]D-Piperidide; lactam N-11)	2.1 ×10⁻⁶ cm/s
CC(C)C[C@@H]1NC(=O)[C@H](Cc2ccccc2)N(C)C(=O)[C@@H](C(C)C)NC(=O)C[C@@H](C(=O)N2CCCCC2)NC(=O)[C@H](C(C)C)N(C)C(=O)[C@H](Cc2ccccc2)N(C)C(=O)[C@H](CCCCC(F)F)NC(=O)[C@H](CC(C)C)N(C)C(=O)CN(C)C(=O)[C@H]([C@@H](C)O)NC(=O)[C@H](CC(C)C)N(C)C1=O [pd332] ([dV][NMeF]L[NMeL]T[Sar][NMeL][hNle(7,7-F2)][NMeF][NMeV]D-Piperidide; lactam N-11)	1.5 ×10⁻⁶ cm/s
CC[C@H](C)[C@@H]1NC(=O)[C@H](CC(C)C)N(C)C(=O)CCCN(C)C(=O)C[C@@H](C(=O)N2CCCCC2)NC(=O)[C@H](CC(C)C)N(C)C(=O)[C@H](C)N(C)C(=O)[C@H]([C@@H](C)O)NC(=O)[C@H](CC(C)C)N(C)C(=O)[C@H](CCCCC(F)F)NC(=O)[C@H](Cc2ccccc2)N(C)C(=O)[C@H](Cc2ccccc2)N(C)C1=O [pd333] ([NMeGABA][NMeL]I[NMeF][NMeF][hNle(7,7-F2)][NMeL]T[NMeA][NMeL]D-Piperidide; lactam N-11)	1.3 ×10⁻⁶ cm/s

same assay, conditions: human; Papp, Caco-2 membrane permeability, improved method; read-out: Caco-2

Structure (SMILES)	Papp A→B at 180 min
CC(C)C[C@H]1C(=O)N[C@@H]([C@@H](C)O)C(=O)N(C)CC(=O)N(C)[C@@H](Cc2ccccc2)C(=O)N(C)[C@@H](CC(C)C)C(=O)N[C@@H](C(C)C)C(=O)N(C)[C@@H](CC(C)C)C(=O)N[C@H](C(=O)N2CCCCC2)CC(=O)N(C)CC(=O)N(C)[C@@H](C(C)C)C(=O)N[C@@H](CCc2ccccc2)C(=O)N1C [pd319] ([Sar][NMeV][hPhe][NMeL]T[Sar][NMeF][NMeL]V[NMeL]D-Piperidide; lactam N-11)	2.2 ×10⁻⁶ cm/s
